# Test results as given in PubChem BioAssay AID1259407 (Chemical Carcinogenesis Research Information System (CCRIS), 2018).
# The source made the active and inactive calls. How the calls were made is not given here.
# System: CCRIS mutagenicity, Ames/micronucleus/aberration tests
# Experiment: CCRIS mutagenicity studies
# [1] = Test System: AMES SALMONELLA TYPHIMURIUM, Strain/Indicator: TA98, Metabolic Activation: NONE, Method: STANDARD PLATE
# [2] = Test System: AMES SALMONELLA TYPHIMURIUM, Strain/Indicator: TA98, Metabolic Activation: RAT, LIVER, S-9, AROCLOR 1254, Method: STANDARD PLATE
# [3] = Test System: AMES SALMONELLA TYPHIMURIUM, Strain/Indicator: TA100, Metabolic Activation: NONE, Method: STANDARD PLATE
# [4] = Test System: AMES SALMONELLA TYPHIMURIUM, Strain/Indicator: TA100, Metabolic Activation: RAT, LIVER, S-9, AROCLOR 1254, Method: STANDARD PLATE
# [5] = Test System: AMES SALMONELLA TYPHIMURIUM, Strain/Indicator: TA97, Metabolic Activation: NONE, Method: STANDARD PLATE
# [6] = Test System: AMES SALMONELLA TYPHIMURIUM, Strain/Indicator: TA102, Metabolic Activation: NONE, Method: STANDARD PLATE
# [7] = Test System: AMES SALMONELLA TYPHIMURIUM, Strain/Indicator: TA98, Metabolic Activation: NONE, Method: PREINCUBATION
# [8] = Test System: AMES SALMONELLA TYPHIMURIUM, Strain/Indicator: TA100, Metabolic Activation: NONE, Method: PREINCUBATION
# [9] = Test System: AMES SALMONELLA TYPHIMURIUM, Strain/Indicator: TA1535, Metabolic Activation: NONE, Method: PREINCUBATION
smiles,measurement,setting,value
NC(=O)CCC(=O)Nc1cc(Cl)c(Cl)c(Cl)c1,mutagenic call,[1],inactive; negative
same,mutagenic call,[2],inactive; negative
same,mutagenic call,[3],inactive; negative
same,mutagenic call,[4],inactive; negative
C[C@@H]1O[C@@H](O[C@H]2[C@H](O[C@H]3[C@H](O[C@H]4CC[C@@]5(C)[C@@H](CC[C@]6(C)[C@@H]5CC=C5[C@@H]7CC(C)(C)C[C@@H](O)[C@]7(C)CC[C@]56C)[C@@]4(C)CO)O[C@H](C(=O)O)[C@@H](O)[C@@H]3O)O[C@H](CO)[C@H](O)[C@@H]2O)[C@H](O)[C@H](O)[C@H]1O,mutagenic call,[5],inactive; negative
same,mutagenic call,"Test System: AMES SALMONELLA TYPHIMURIUM, Strain/Indicator: TA97, Metabolic Activation: RAT, LIVER, S-9, AROCLOR 1254, Method: STANDARD PLATE",inactive; negative
same,mutagenic call,[1],inactive; negative
same,mutagenic call,[2],inactive; negative
same,mutagenic call,[3],inactive; negative
same,mutagenic call,[4],inactive; negative
same,mutagenic call,[6],inactive; negative
same,mutagenic call,"Test System: AMES SALMONELLA TYPHIMURIUM, Strain/Indicator: TA102, Metabolic Activation: RAT, LIVER, S-9, AROCLOR 1254, Method: STANDARD PLATE",inactive; negative
O=S(=O)(O)OCc1c2ccccc2c2ccc3cccc4ccc1c2c43,mutagenic call,[7],active; positive
same,mutagenic call,[1],active; positive
same,mutagenic call,[8],active; positive
same,mutagenic call,"Test System: CHINESE HAMSTER V-79, Strain/Indicator: V-79 (HGPRT)/6-THIOGUANINE, Metabolic Activation: NONE",active; positive
same,mutagenic call,"Test System: CHINESE HAMSTER V-79, Strain/Indicator: V-79 (NA/K-ATPASE)/OUABAIN, Metabolic Activation: NONE",active; positive
C1CCNC1,mutagenic call,[7],inactive; negative
same,mutagenic call,"Test System: AMES SALMONELLA TYPHIMURIUM, Strain/Indicator: TA98, Metabolic Activation: RAT, LIVER, S-9, PCB, Method: PREINCUBATION",inactive; negative
same,mutagenic call,[8],inactive; negative
same,mutagenic call,"Test System: AMES SALMONELLA TYPHIMURIUM, Strain/Indicator: TA100, Metabolic Activation: RAT, LIVER, S-9, PCB, Method: PREINCUBATION",inactive; negative
Cc1ccc(N)c(N)c1,mutagenic call,"Test System: AMES SALMONELLA TYPHIMURIUM, Strain/Indicator: TA97, Metabolic Activation: HAMSTER, LIVER, S-9, AROCLOR 1254 (10%), Method: PREINCUBATION",inactive; negative
same,mutagenic call,"Test System: AMES SALMONELLA TYPHIMURIUM, Strain/Indicator: TA97, Metabolic Activation: NONE, Method: PREINCUBATION",inactive; negative
same,mutagenic call,"Test System: AMES SALMONELLA TYPHIMURIUM, Strain/Indicator: TA97, Metabolic Activation: RAT, LIVER, S-9, AROCLOR 1254 (10%), Method: PREINCUBATION",active; positive
same,mutagenic call,"Test System: AMES SALMONELLA TYPHIMURIUM, Strain/Indicator: TA98, Metabolic Activation: HAMSTER, LIVER, S-9, AROCLOR 1254 (10%), Method: PREINCUBATION",active; positive
same,mutagenic call,[7],inactive; negative
same,mutagenic call,"Test System: AMES SALMONELLA TYPHIMURIUM, Strain/Indicator: TA98, Metabolic Activation: RAT, LIVER, S-9, AROCLOR 1254 (10%), Method: PREINCUBATION",active; positive
same,mutagenic call,"Test System: AMES SALMONELLA TYPHIMURIUM, Strain/Indicator: TA100, Metabolic Activation: HAMSTER, LIVER, S-9, AROCLOR 1254 (10%), Method: PREINCUBATION",active; positive
same,mutagenic call,[8],inactive; negative
same,mutagenic call,"Test System: AMES SALMONELLA TYPHIMURIUM, Strain/Indicator: TA100, Metabolic Activation: RAT, LIVER, S-9, AROCLOR 1254 (10%), Method: PREINCUBATION",active; positive
same,mutagenic call,"Test System: AMES SALMONELLA TYPHIMURIUM, Strain/Indicator: TA1535, Metabolic Activation: HAMSTER, LIVER, S-9, AROCLOR 1254 (10%), Method: PREINCUBATION",inactive; negative
same,mutagenic call,[9],inactive; negative
same,mutagenic call,"Test System: AMES SALMONELLA TYPHIMURIUM, Strain/Indicator: TA1535, Metabolic Activation: RAT, LIVER, S-9, AROCLOR 1254 (10%), Method: PREINCUBATION",inactive; negative
c1ccc(CSSCc2ccccc2)cc1,mutagenic call,[5],inactive; negative
same,mutagenic call,"Test System: AMES SALMONELLA TYPHIMURIUM, Strain/Indicator: TA97, Metabolic Activation: S-9, Method: STANDARD PLATE",inactive; negative
same,mutagenic call,[1],inactive; negative
same,mutagenic call,"Test System: AMES SALMONELLA TYPHIMURIUM, Strain/Indicator: TA98, Metabolic Activation: S-9, Method: STANDARD PLATE",inactive; negative
same,mutagenic call,[3],inactive; negative
same,mutagenic call,"Test System: AMES SALMONELLA TYPHIMURIUM, Strain/Indicator: TA100, Metabolic Activation: S-9, Method: STANDARD PLATE",inactive; negative
same,mutagenic call,[6],active; positive
same,mutagenic call,"Test System: AMES SALMONELLA TYPHIMURIUM, Strain/Indicator: TA102, Metabolic Activation: S-9, Method: STANDARD PLATE",active; positive
CCN(N=O)C(=O)Nc1ccccc1,mutagenic call,"End Point: IN VITRO CHROMOSOMAL ABERRATIONS, Test System: CHINESE HAMSTER V79-E CELLS, Metabolic Activation: NONE",active; positive (structural changes)
CCOC(=O)N(CCC=O)N=O,mutagenic call,[8],active; positive
same,mutagenic call,"Test System: AMES SALMONELLA TYPHIMURIUM, Strain/Indicator: TA104, Metabolic Activation: NONE, Method: PREINCUBATION",active; positive
same,mutagenic call,[9],active; positive
CCCCOc1c(C(=O)NOC(C)=O)ccc2ccccc12,mutagenic call,[3],active; positive
same,mutagenic call,"Test System: AMES SALMONELLA TYPHIMURIUM, Strain/Indicator: TA100, Metabolic Activation: RAT, S-9, AROCLOR, Method: STANDARD PLATE",active; positive
Cc1c2cc(CO)ccc2nc2c3c(ccc12)[C@H](O)[C@@H](O)C=C3,mutagenic call,[4],active; positive
Cc1c(C)c2c(nc(N)n2C)c2nccnc12,mutagenic call,[2],active; positive
Clc1ccc(C(c2ccccc2Cl)C(Cl)Cl)cc1 (stereo not given),mutagenic call,"End Point: IN VITRO CHROMOSOMAL ABERRATIONS, Test System: CHINESE HAMSTER OVARY CELLS, Metabolic Activation: NONE",inactive; negative
same,mutagenic call,"End Point: IN VITRO CHROMOSOMAL ABERRATIONS, Test System: CHINESE HAMSTER OVARY CELLS, Metabolic Activation: RAT, LIVER, S-9, AROCLOR 1254",inactive; negative
same,mutagenic call,"Test System: AMES SALMONELLA TYPHIMURIUM, Strain/Indicator: TA98, Metabolic Activation: MOUSE, LIVER, S-9, Method: STANDARD PLATE",inactive; negative
same,mutagenic call,[1],inactive; negative
same,mutagenic call,"Test System: AMES SALMONELLA TYPHIMURIUM, Strain/Indicator: TA98, Metabolic Activation: RAT, LIVER, S-9, Method: STANDARD PLATE",inactive; negative
same,mutagenic call,"Test System: AMES SALMONELLA TYPHIMURIUM, Strain/Indicator: TA100, Metabolic Activation: MOUSE, LUNG, S-9, Method: STANDARD PLATE",inactive; negative
same,mutagenic call,[3],inactive; negative
same,mutagenic call,"Test System: AMES SALMONELLA TYPHIMURIUM, Strain/Indicator: TA100, Metabolic Activation: RAT, LIVER, S-9, Method: STANDARD PLATE",inactive; negative
same,mutagenic call,"Test System: UDS RODENT HEPATOCYTES, Strain/Indicator: THY INCORP (NON-S-PHASE), Metabolic Activation: NONE, Method: LIQUID SCINTILLATION COUNTING",inactive; negative
same,mutagenic call,"Test System: UDS RODENT LUNG CELLS, Strain/Indicator: THY INCORP (NON-S-PHASE), Metabolic Activation: NONE, Method: LIQUID SCINTILLATION COUNTING",active; positive
CC(C)NCC(=O)NC(=O)C=[N+]=[N-],mutagenic call,"Test System: UDS RODENT CELLS, Strain/Indicator: THY INCORP (NON-S-PHASE), Metabolic Activation: NONE, Method: AUTORADIOGRAPHY",active; positive
